Assay results published in patent publication US8815935B2, “Inhibitors of protein prenyltransferases” (The Regents of the University of California, priority 2008, dated 2014).
pIC50: −log10 of the molar value. Values joined by “and” are separate entries in the source; they are usually repeats but may differ in a detail not shown here. Identical values can stand only once.

Columns and labels:
FTase = target: T1, FTase (Rattus norvegicus, UniProt Q02293+Q04631); experiment: In vitro FTase assay (K-Ras4B substrate, [3H]FPP); type: biochemical
T1 construct: purchased JENA BIOSCIENCE
From the text: To further characterize the pilot library, inhibitors of protein farnesyltransferase were identified. This was accomplished by using K-Ras4B as a substrate protein, tritiated farnesylpyrophosphate ([^3H]FPP) and protein farnesyltransferase. See Finegold, A. A., Johnson, D. I., Farnsworth, C. C., Gelb, M. H., Judd, S. R., Glomset, J. A. and Tamanoi, F. (1991) Protein geranylgeranyltransferase of Saccharomyces cerevisiae is specific for Cys-Xaa-Xaa-Leu motif and requires the CDC43 gene product but not the DPR1 gene product. Proc. Natl. Acad. Sci. USA 88, 4448-4452. […] On the other hand, the structure of the compounds P1-F11, P2-B7 and P2-E9 resemble those of GGTIs. The FTI P1-F11 resembles the GGTI P1-F10, while the FTI P2-B7 resembles the GGTI P2-C10. The FTI P2-E9 is similar to the GGTI P2-G3. Similarity of some GGTI and FTI compounds may point to common structural features between the two closely related enzymes. As described before, FTase and GGTase I have similar three-dimensional structures and a shared alpha subunit. On the other hand, FTase specific inhibitors may recognize a region(s) that is different between the two enzymes.
Examples 2-8 illustrate assays of bioactivity. These methods are applicable to the compounds of the present invention having the particular linkers and scaffolds described herein, to determine their activity. […] Varying concentrations of the two compounds were added to each enzyme reaction. The FTase (protein farnesyltransferase) assay was carried out using K-Ras4B as a substrate protein, FTase (JENA Bioscience, San Diego, Calif.) and [3H]farnesyl pyrophosphate. Incubation was for 30 min at 37° C.
GGTase-I and FTase activities were determined by following the incorporation of radiolabeled isoprenoid [^3H]-geranylgeranyl or [^3H]-farnesyl into substrate proteins. FTase or GGTase-I (50 nM) were used to initiate reactions containing 0.4 μM of [^3H]-FPP or 0.5 μM of [^3H]-GGPP and 2 μM of MBP-tagged substrates (K-Ras4B for FTase; RhoA for GGTase-I) in 20 μl of buffer {50 mM Tris-HCl (pH 7.5), 10 mM MgCl2, […] and 5 mM DTT}. Inhibitors were added at the indicated concentrations. The final DMSO concentration was 2.5% for all samples.
Reactions were carried out for 10 min at 30° C. The reaction mixture was spotted onto a filter paper, treated with 10% trichloroacetic acid (TCA) followed by ethanol and acetone washing. The filter was counted using a scintillation counter. Kinetic assays in which the GGPP concentration was varied employed fixed concentrations of GGTase-I and RhoA, and reactions were carried out for 5 min. Similarly, fixed concentrations of GGTase-I and GGPP were used when the amount of RhoA was varied.

[1] = test system: geranylgeranylated Rheb (Rheb-CSVL) in HEK 293 cells; experiment: Rheb-CSVL mobility shift in HEK 293 cells; type: cell-based, human; conditions: 48 hours
From the text: Finally, we investigated in vivo effects of compounds 22 (also known as UC-22) and 23 (also known as UC-23). Human embryonic kidney (HEK) 293 cells were transfected with the Rheb-CSVL construct that expresses the geranylgeranylated form of the Rheb protein. Inhibition of the geranylgeranylation of this protein can be detected from a shift in its mobility on SDS polyacrylamide gel; the unprocessed form appears as a slowly migrating band.
Human embryonic kidney (HEK) 293 cells expressing Myc-HA tagged-Rheb-CVSL (upper) or Myc-HA tagged-Rheb-WT (lower) were treated with P3-E5 for 48 hours and then lysed. The cell lysates were run on a SDS polyacrylamide gel and immunoblotted using anti-Myc or anti-Actin antibody. The descriptors P and U indicate processed and unprocessed Rheb, respectively.
Human embryonic kidney (HEK) 293 cells expressing Myc-HA tagged-Rheb-CVSL (upper) or Myc-HA tagged-Rheb-WT (lower) were treated with mP5-H6a (also referred to as mP5-H6), or GGTI-298 for 48 hours and then lysed. Lysates were run on a SDS polyacrylamide gel and immunoblotted with anti-Myc or anti-Actin antibody.

Jurkat cells = experiment: Jurkat cell growth inhibition; type: cell-based, human; conditions: Homo sapiens, Jurkat, 72 h; 3 days, CCK-8, vs DMSO; read-out: IC50, Jurkat (Blood)
Procedure, shortened: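 Jurkat T-cell leukemia cells were exposed to compound for 72 h, with cell number counted and viability read by CCK-8 relative to the DMSO control. GI50 is the compound concentration giving 50% growth inhibition.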

Jurkat = experiment: Cell cycle distribution by flow cytometry, Jurkat; type: cell-based, human; conditions: 10 μM, 48 hours
Method: (§1) Cell viability was determined by Cell Counting Kit-8 (CCK-8, Dojindo, Kumamoto, Japan) as described previously (31). Cell viability was calculated relative to the DMSO control. Cell cycle profile was analyzed by flow cytometry as described previously (32).

MiaPaCa2 = experiment: Cell cycle distribution by flow cytometry, MiaPaCa2; type: cell-based, human; conditions: 10 μM, 48 hours
Method: as §1

p21CIP1/WAF1 promoter = experiment: p21 promoter luciferase reporter assay in NIH3T3 cells; type: cell-based; conditions: NIH3T3, 48 hours, dose dependent
Method: For the p21^WAF1/CIP1 promoter luciferase assay, NIH3T3 cells were transfected with p21^WAF1/CIP1 promoter-Luc or vector plasmids (33) (both plasmids are provided by Dr. Genhong Cheng). Cells were treated with GGTI compounds. Promega luciferase assay kit was used according to the manufacturer's protocol.
Another mechanism through which GGTI can effect cell cycle progression is to inhibit RhoA which negatively regulates expression of a Cdk inhibitor p21^CIP1/WAF1. To investigate whether the GGTI compounds described herein can induce p21^CIP1/WAF1 expression, luciferase transcriptional activation from the p21^CIP1/WAF1 promoter (33) was measured. Transient expression systems with NIH3T3 cells were used to examine the ability of P61-A6 to induce p21^CIP1/WAF1-luciferase expression. P61-A6 induced significant (4-fold) inductions of luciferase activity versus DMSO in a dose dependence manner (FIG. 37C).

[2] = Pharmacokinetics (serum levels) after IP dosing; type: in vivo, mice; conditions: 1.16 mg/kg
From the text: This may be due to slow metabolism of the compound. […] Thus, in some embodiments, the compositions of the invention can be administered is a dosage regimen that is highly convenient, e.g., once weekly instead of daily. The compositions of the present invention can be administered every 1, 2, 3, 4, 5, 6, or 7 days, or may be administered otherwise.

Row | inhibition of FTase activity (FIG. 16) (FTase; P3-D9, P3-E5: concentration increased to 100 (unit not given)) | inhibition of FTase activity (FTase; concentration increased to 50,000 nM) | inhibition of FTase activity (FTase; concentration increased to 100,000 nM) | pIC50 (Jurkat cells) | Clearance ([2]; IP) | Cmax ([2]; mouse, serum, ip) | half-life ([2]; mouse, serum, ip) | AUC(0-t) ([2]; mouse, serum, ip, read-out: AUC0-4 h) | SMILES | inhibition of geranylgeranylation of Rheb-CSVL (slowly migrating unprocessed band) [1] | Percent G2/M, Jurkat (Jurkat; DMSO 11.80) | Percent G0/G1, Jurkat (Jurkat; DMSO 46.92) | Percent G2/M, MiaPaCa2 (MiaPaCa2; DMSO 14.12) | Percent G0/G1, MiaPaCa2 (MiaPaCa2; DMSO 77.85) | induction of p21CIP1/WAF1-luciferase activity versus DMSO (p21CIP1/WAF1 promoter)
1 | no inhibition of FTase activity | no significant inhibition | – | – | – | – | – | – | Cc1ccccc1S(=O)(=O)N1[C@@H](c2cccc(Cl)c2)C(C(=O)O)=CC[C@H]1c1ccc(Cl)cc1 [P3-E5] | inhibits geranylgeranylation in cells | – | – | – | – | –
2 | – | – | No significant inhibition | 5.54 | 1.04 mL/h | 13000 ng/mL and 22.4 µM | 16.9 h | 22200 ng·h/mL | Cc1ccccc1S(=O)(=O)N1C(c2ccc(Cl)cc2)C(C(=O)NC(Cc2ccccc2)C(N)=O)=CC1C(C)(C)C (centres unmarked) [P61-A6] | – | 11.60% | 57.87% | 10.81% | 87.98% | 4 fold
